Assay results published in paper PMC8703807, “Synthesis of ^68Ga-Labeled cNGR-Based Glycopeptides and In Vivo Evaluation by PET Imaging” (Pharmaceutics, 2021).
Where two headings read alike, the source gives them in different places. Positions of bridges follow the written chain, without caps; N, C: chain ends. Residues, ends and D or L forms follow the SMILES beside them. *: point of attachment. X1 = O=C(O)CN1CCN(CC(=O)O)CCN(C(CCC(=O)NCc2ccc(NC(=S)*)cc2)C(=O)O)CCN(CC(=O)O)CC1

Legend:
[1] = system: B16-F10 melanoma tumor-bearing mice; assay: In vivo PET imaging of B16-F10 melanoma tumor-bearing mice; details: 70 min after i.v. injection; for identification of subcutaneous B16-F10 tumors on PET images: qualitative
Protocol: (§1) For subcutaneous B16-F10 (mouse melanoma) tumor induction, C57BL/6 mice (n = 20) were anaesthetized with 3% isoflurane (Forane, AbbVie) using a dedicated small animal anesthesia device (Tec3 Isoflurane Vaporizer, Eickemeyer, UK) and mice were injected subcutaneously with 3 × 10^6 B16-F10 cells in 150 µL of sterile saline into the left shoulder area of the animals. In vivo and ex vivo experiments were carried out 10 ± 1 days after subcutaneous injection of tumor cells at the tumor volume of 80 ± 2 mm^3.
(§2) For in vivo biodistribution studies B16-F10 tumor-bearing mice were anaesthetized with 3% isoflurane and were injected with 6.6 ± 0.3 MBq [^68Ga]-11, or [^68Ga]-3, or [^68Ga]-9 or [^68Ga]-10 in 150 μL saline via the lateral tail vein 10 ± 1 days after subcutaneous injection of tumor cells. 20 min static PET scans were performed 70 min after intravenous injection of the radiotracers from the tumorous area using the preclinical miniPET-II device (University of Debrecen, Faculty of Medicine, Department of Medical Imaging, Division of Nuclear Medicine and Translational Imaging). After image reconstruction, volumes of interest (VOIs) were manually drawn around the examined regions using the BrainCAD image analysis software and quantitative standardized uptake values (SUVs) values were calculated.
(§3) Figure 1 In vivo PET imaging of [^68Ga]-11, [^68Ga]-3, [^68Ga]-9 and [^68Ga]-10 accumulation in B16-F10 tumor-bearing mice 10 ± 1 days after tumor cell inoculation and 70 min after intravenous injection of the radiotracers (A panel). Red arrows: B16-F10 tumor; black arrows: liver. (B,C) panels: quantitative SUVmean and tumor-to-background (muscle) ratio (T/M) analysis of tracer uptake in mice (n = 3/radiopharmaceutical) 70 min post-injection. Significance level: p ≤ 0.05 (*). SUV: standardized uptake value; T/M: tumor-to-muscle ratio. SUV values are presented as mean ± SD.

[2] = as above; details: C57BL/6, mouse, in vivo, iv, total radioactivity
Protocol: as §1, §2, §3

[3] = Determination of logP value (octanol/water partition coefficient); assay type: physicochemical
Protocol: The mixture was shaken with a vortex shaker for 5 min and centrifugated (9000 rpm) for 5 min. A 3 × 20 µL amount of both solvents was pipetted into a vial. The radioactivity of the fractions was determined with a gamma counter.

[4] = system: B16-F10 tumor-bearing mice; details: ex vivo, 90 min after injection, compared to the other investigated molecules
Protocol: as §1

[5] = tumor SUVmean, B16-F10 tumor, 70 min after i.v. injection, n = 3, mean ± SD
[6] = 1-octanol/water, gamma counter, read-out: octanol/water partition coefficient (logP)

SUV at 70 min ([2]; liver SUVmean)	SUV at 70 min ([2]; tumor SUVmean)	logP [3]	Structure (SMILES)	liver SUVmean ([1]; n = 3, mean ± SD)	identification of subcutaneous B16-F10 tumors on PET images [1]	tissue to tissue ratio at 70 min [2]	SUV at 70 min [2, 5]	logP [3, 6]	radioactivity concentration in blood [4]	SUV at 70 min ([2]; liver SUVmean, 70 min after i.v. injection, n = 3, mean ± SD)
–	–	–	N=C(N)NCCC[C@@H]1NC(=O)CNC(=O)[C@H](CC(N)=O)NC(=O)[C@H](CCCCNC(=O)CCC(=O)N2Cc3ccccc3-c3c(nnn3CCCO[C@@H]3O[C@H](CO)[C@@H](O[C@@H]4O[C@H](CO)[C@H](O)[C@H](O)[C@H]4O)[C@H](O)[C@H]3NC(=S)Nc3ccc(CNC(=O)CCC(C(=O)O)N4CCN(CC(=O)O)CCN(CC(=O)O)CCN(CC(=O)O)CC4)cc3)-c3ccccc32)NC(=O)CC[C@@H](C(N)=O)NC1=O (stereo partly shown) [[^68Ga]-9, metal not drawn]	0.18 ± 0.01	clearly identified	6.01 ± 1.24	0.11 ± 0.03 SUV	-3.68	–	–
–	–	–	N=C(N)NCCC[C@@H]1NC(=O)CNC(=O)[C@H](CC(N)=O)NC(=O)[C@H](CCCCNC(=O)CCOCCOCCOCCOCCNC(=O)CCC(=O)N2Cc3ccccc3-c3c(nnn3CCCO[C@@H]3O[C@H](CO)[C@@H](O[C@@H]4O[C@H](CO)[C@H](O)[C@H](O)[C@H]4O)[C@H](O)[C@H]3NC(=S)Nc3ccc(CNC(=O)CCC(C(=O)O)N4CCN(CC(=O)O)CCN(CC(=O)O)CCN(CC(=O)O)CC4)cc3)-c3ccccc32)NC(=O)CC[C@@H](C(N)=O)NC1=O (stereo partly shown) [[^68Ga]-10, metal not drawn]	–	clearly identified	7.89 ± 1.31	0.15 ± 0.01 SUV	-3.69	higher radioactivity concentration	0.1 ± 0.02 SUV
0.28 ± 0.1 SUV	0.09 ± 0.03 SUV	-4.13	N=C(N)NCCC[C@@H]1NC(=O)CNC(=O)[C@H](CC(N)=O)NC(=O)[C@H](CCCCNC(=S)Nc2ccc(CNC(=O)CCC(C(=O)O)N3CCN(CC(=O)O)CCN(CC(=O)O)CCN(CC(=O)O)CC3)cc2)NC(=O)CC[C@@H](C(N)=O)NC1=O (stereo partly shown) [[^68Ga]-11, metal not drawn] (K(X1)NGRE-NH2; lactam N-5)	–	clearly identified	5.71 ± 1.17	–	–	–	–
